The results in this text go back to ChEMBL document CHEMBL1134734, “Introduction of alkynyl chains on C-8 of adenosine led to very selective antagonists of the A(3) adenosine receptor” (Bioorg Med Chem Lett, 2001).

The target in experiment [1] is T1, Adenosine receptor A3 (Homo sapiens) (UniProt P0DMS8).
T1 sequence (whole entry): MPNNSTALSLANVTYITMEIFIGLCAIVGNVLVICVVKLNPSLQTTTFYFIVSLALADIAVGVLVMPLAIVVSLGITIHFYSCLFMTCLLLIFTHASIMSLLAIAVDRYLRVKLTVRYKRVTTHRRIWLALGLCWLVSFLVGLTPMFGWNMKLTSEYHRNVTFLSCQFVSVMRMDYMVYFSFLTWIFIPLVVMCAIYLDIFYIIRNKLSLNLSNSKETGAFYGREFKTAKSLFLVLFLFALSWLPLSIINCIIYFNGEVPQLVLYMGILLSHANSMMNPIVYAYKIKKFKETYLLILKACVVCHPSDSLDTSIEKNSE
The note with it: CHO, 1 uM.
Description: Inhibition of [35S]GTP gamma-S binding to CHO cell membranes expressing human A3 receptor at 1 uM

Experiment [2] deals with T1, Adenosine receptor A3 (Homo sapiens). The experiment can be described thus: Stimulation of [35S]GTP gamma-S binding in CHO cell membranes expressing human A3 receptor at 78.8 uM. It is filed as functional.
In experiment [3] the target is T2, Adenosine receptor A2b (Homo sapiens, UniProt P29275).
T2 sequence (P29275 whole entry): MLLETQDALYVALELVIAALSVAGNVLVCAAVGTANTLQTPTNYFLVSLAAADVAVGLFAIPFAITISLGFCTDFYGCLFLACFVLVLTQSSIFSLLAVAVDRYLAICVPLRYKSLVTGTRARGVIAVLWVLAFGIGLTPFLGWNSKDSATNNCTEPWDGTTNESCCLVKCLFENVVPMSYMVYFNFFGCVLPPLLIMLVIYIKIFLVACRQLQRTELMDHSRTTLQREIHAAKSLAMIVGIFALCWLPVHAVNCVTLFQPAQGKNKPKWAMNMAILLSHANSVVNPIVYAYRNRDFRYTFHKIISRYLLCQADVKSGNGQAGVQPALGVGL
The experiment can be described thus: Receptor stimulated adenylyl cyclase activity in CHO cells expressing human recombinant Adenosine A2B receptor. It is filed as functional, cell-based.

For experiment [4], the target named is T3, Adenosine receptor A3 (Homo sapiens, UniProt P0DMS8).
T3 sequence (P0DMS8 whole entry): T1 sequence (whole entry)
The experiment can be described thus: [3H]NECA […] binding in CHO cells expressing human Adenosine A3 receptor. It is filed as cell-based.

Experiment [5] deals with T4, Adenosine receptor A1 (Homo sapiens, UniProt P30542).
T4 sequence (P30542 whole entry): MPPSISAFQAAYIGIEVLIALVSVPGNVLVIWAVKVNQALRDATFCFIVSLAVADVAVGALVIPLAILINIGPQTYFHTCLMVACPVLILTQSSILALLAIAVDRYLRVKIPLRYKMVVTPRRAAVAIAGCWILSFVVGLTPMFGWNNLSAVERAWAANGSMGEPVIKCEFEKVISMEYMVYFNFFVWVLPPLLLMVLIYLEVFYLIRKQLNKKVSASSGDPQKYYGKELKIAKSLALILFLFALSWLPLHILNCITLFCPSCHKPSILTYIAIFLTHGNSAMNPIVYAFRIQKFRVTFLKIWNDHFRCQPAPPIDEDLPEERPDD
As to the kind of experiment: Displacement of [3H]-CCPA from CHO cells expressing human recombinant Adenosine A1 receptor. The class given is cell-based. In general terms: In a radioligand displacement assay an active substance lowers the binding of a labelled ligand.

Experiment [6] addresses Adenosine receptor A2a (Homo sapiens, UniProt P29274). The experiment can be described thus: [3H]NECA […] binding in CHO cells expressing human recombinant A2A adenosine receptor. It is filed as cell-based.
The target of experiment [7] is T1, Adenosine receptor A3 (Homo sapiens). The experiment can be described thus: Stimulation of [35S]GTP gamma-S binding in CHO cell membranes expressing human A3 receptor at 983 uM. It is filed as functional. (Binding of GTPγS marks nucleotide exchange on a G protein.)
Experiment [8] deals with T2, Adenosine receptor A2b. As to the kind of experiment: Antagonistic activity against Adenosine A2B receptor. It is filed as functional.

A value given as a limit tells only on which side of the number the result lay.

For orientation: EC50 means the concentration at which the effect is half-maximal. The term Ki denotes a measure of affinity in units of concentration, obtained from inhibition or displacement. By IC50 is commonly meant the concentration that gives 50% inhibition. Lower therefore signals inhibition by little substance.

Adenosine receptor A2a, sequence (P29274 whole entry): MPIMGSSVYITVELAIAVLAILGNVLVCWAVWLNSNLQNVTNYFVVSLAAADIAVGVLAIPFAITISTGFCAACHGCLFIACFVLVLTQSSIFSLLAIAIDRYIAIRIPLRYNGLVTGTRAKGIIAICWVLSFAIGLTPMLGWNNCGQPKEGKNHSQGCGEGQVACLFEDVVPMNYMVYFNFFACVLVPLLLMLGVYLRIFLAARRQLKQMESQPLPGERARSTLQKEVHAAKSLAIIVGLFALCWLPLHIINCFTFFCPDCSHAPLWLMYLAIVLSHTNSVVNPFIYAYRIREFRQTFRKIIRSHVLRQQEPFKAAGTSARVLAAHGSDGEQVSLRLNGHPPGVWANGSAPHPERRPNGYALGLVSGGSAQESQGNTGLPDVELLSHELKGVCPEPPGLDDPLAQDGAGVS

Turning to `CCNC(=O)[C@H]1O[C@@H](n2cnc3c(N)ncnc32)[C@H](O)[C@@H]1O`, in experiment [1], the Agonist effect was 100%.
In experiment [2], `Nc1ncnc2c1nc(C#Cc1ccccc1)n2[C@@H]1O[C@H](CO)C(O)C1O` (single isomer, unassigned) returned an Agonist effect of 0.2%. The concentration giving a half-maximal response (EC50) in experiment [3] was more than 100 µM. Moreover, the Ki in experiment [4] was 0.79 µM; in experiment [5] it was more than 100 µM; in experiment [6], more than 100 µM.
For `Nc1ncnc2c1nc(/C=C/C(=O)c1ccccc1)n2[C@@H]1O[C@H](CO)[C@@H](O)[C@H]1O`, in experiment [3], the EC50 is more than 100 µM. Moreover, the Agonist effect in experiment [7] was determined as 1.9%. Also, the Ki in experiment [4] was 9.83 µM; in experiment [5], more than 100 µM; in experiment [6] it was 46.6 µM.
Turning to `CCn1c(C#Cc2ccccc2)nc2c(N)ncnc21`, the figures for the Ki in experiment [4] and in experiment [6] were 0.086 µM and 0.6 µM, respectively. The molecule also gave an IC50 in experiment [8] not below 100 µM.
Turning to `CCCCC#Cc1nc2c(N)ncnc2n1[C@@H]1O[C@H](CO)C(O)C1O` (single isomer, unassigned), in experiment [3], the EC50 is more than 100 µM. Besides, the Ki in experiment [5] and in experiment [6] was more than 100 µM in each case.
